Values of other authors in patent US7625898B2, “Posaconazole polymer conjugates and methods of treatment using posaconazole and polymer conjugates thereof” (Enzon Pharmaceuticals, Inc., priority 2007, dated 2009).

Conditions: background statement on unmodified posaconazole

- water solubility: < 2 µg/mL
Compound: CC[C@@H]([C@H](C)O)n1ncn(-c2ccc(N3CCN(c4ccc(OC[C@@H]5CO[C@@](Cn6cncn6)(c6ccc(F)cc6F)C5)cc4)CC3)cc2)c1=O [Posaconazole, posaconazole]
